Measured values: US20240174690A1, “ANNULATED 2-AMINO-3-CYANO THIOPHENES AND DERIVATIVES FOR THE TREATMENT OF CANCER” (BOEHRINGER INGELHEIM INTERNATIONAL GMBH, priority 2021, published 2024)

Columns and labels:
KRAS (G12C)::SOS1 = KRAS (G12C)::SOS1 (Homo sapiens (Human), UniProt P01116, C118S/C51S/C80L/G12C); assay: KRAS::SOS1 AlphaScreen binding assay, KRAS G12C
Source text: This assay can be used to examine the potency with which compounds according to the invention binding to (mutated) KRAS inhibit the protein-protein interaction between SOS1 and (mutated) KRAS e.g., KRAS WT, KRAS G12C, KRAS G12D, KRAS G12V, KRAS G13D. […] Low IC50 values in this assay setting are indicative of strong inhibition of protein-protein interaction between SOS1 and KRAS:
These assays measure the inhibitory effect of compounds on KRAS mutant protein-protein interactions using the Alpha Screen technology by Perkin Elmer.
The following (mutant) enzyme forms of KRAS and interacting proteins are used in these assays at the given concentrations: • KRAS (G12D) 1-169, N-terminal 6His-tag, C-terminal avi-tag (Xtal BioStructures, Inc.); final assay concentration 10 nM and SOS1 564-1049, N-terminal 229 GST-tag, TEV cleavage site (Viva Biotech Ltd); final assay concentration 5 nM; • KRAS (G12C) 1-169, N-terminal 6His-tag for purification, cleaved off, C-terminal avi-tag, biotinylated, mutations: C51S, C80L, C118S (in house); final assay concentration 7.5 nM and SOS1 564-1049, N-terminal 229 GST-tag, TEV cleavage site (Viva Biotech Ltd); final assay concentration 5 nM; • KRAS (G12V) 1-169, N-terminal 6His-tag for purification, cleaved off, C-terminal avi-tag, biotinylated, TEV cleavage site, mutation: C118S, GDP loaded (in house); final assay concentration 10 nM and SOS1 564-1049, N-terminal 229 GST-tag, TEV cleavage site (Viva Biotech Ltd); final assay concentration 10 nM; • KRAS (G13D) 1-169, N-terminal 6His-tag for purification, cleaved off, C-terminal avi-tag, biotinylated, TEV cleavage site, mutation: C118S, GDP loaded (in house); final assay concentration 10 nM and SOS1 564-1049, N-terminal 229 GST-tag, TEV cleavage site (Viva Biotech Ltd); final assay concentration 10 nM; • KRAS (WT) 1-169, N-terminal 6His-tag for purification, cleaved off, C-terminal avi-tag, biotinylated, TEV cleavage site, mutation: C118S, GDP loaded (in house); final assay concentration 10 nM and SOS1 564-1049, N-terminal 229 GST-tag, TEV cleavage site (Viva Biotech Ltd); final assay concentration 10 nM.
Test compounds dissolved in DMSO are dispensed onto assay plates (Proxiplate 384 PLUS, white, PerkinElmer; 6008289) using an Access Labcyte Workstation with the Labcyte Echo 55×. For the chosen highest assay concentration of 100 μM, 150 nL of compound solution are transferred from a 10 mM DMSO compound stock solution. A series of eleven fivefold dilutions per compound are transferred to the assay plate, compound dilutions are tested in duplicates. DMSO are added as backfill to a total volume of 150 nL.
The assays run on a fully automated robotic system in a darkened room below 100 Lux. To 150 nl of compound dilution 10 μl of a mix including KRAS mutant protein, SOS1 (final assay concentrations see above) and GDP nucleotide (Sigma G7127; final assay concentration 10 μM) in assay buffer (1×PBS, 0.1% BSA, 0.05% Tween 20) are added into columns 1-24.
After 30 minutes incubation time 5 μl of Alpha Screen bead mix in assay buffer are added into columns 1-23. Bead mix consists of AlphaLISA Glutathione Acceptor Beads (PerkinElmer, Cat No AL109) and AlphaScreen Streptavidin Donor Beads (PerkinElmer Cat No 6760002) in assay buffer at a final assay concentration of 10 μg/ml each.
Plates are kept at room temperature in a darkened incubator. After an additional 60 minutes incubation time the signal is measured in a PerkinElmer Envision HTS Multilabel Reader using the AlphaScreen specs from PerkinElmer.
Each plate contains up to 16 wells of a negative control depending on the dilution procedure (platewise or serial) (DMSO instead of test compound; with KRAS mutant::SOS1 GDP mix and bead mix; column 23) and 16 wells of a positive control (DMSO instead of test compound; with KRAS mutant::SOS1 GDP mix w/o bead mix; column 24).
As internal control known inhibitors of KRAS mutant::SOS1 interaction can be measured on each compound plate. […]

[1] = system: KRAS G12D-dependent Ba/F3 cells; assay: Ba/F3 proliferation assay, KRAS G12D; assay type: cell-based; conditions: Mus musculus, BaF3, 72 h, AlamarBlue
Method: Plasmids containing KRASG12 mutants (i.e. […], G12C, G12V) are obtained from GeneScript. To generate KRASG12-dependent Ba/F3 models, Ba/F3 cells are transduced with retroviruses containing vectors that harbor KRASG12 isoforms. Platinum-E cells (Cell Biolabs) are used for retrovirus packaging. Retrovirus is added to Ba/F3 cells. To ensure infection, 4 μg/mL polybrene is added and cells are spinfected. […] Cells with an infection efficiency of 10% to 20% are further cultivated and puromycin selection with 1 μg/mL is initiated. As a control, parental Ba/F3 cells are used to show selection status. Selection is considered successful when parental Ba/F3 cells cultures died. To evaluate the transforming potential of KRASG12 mutations, the growth medium is no longer supplemented with IL-3. Ba/F3 cells harboring the empty vector are used as a control. Approximately ten days before conducting the experiments, puromycin is left out.
Compounds are added using an Access Labcyte Workstation with a Labcyte Echo 550 or 555 accoustic dispenser. All treatments are performed in technical duplicates. […] AlamarBlue™ (ThermoFisher), a viability stain, is added and fluorescence measured in the PerkinElmer Envision HTS Multilabel Reader. The raw data are imported into and analyzed with the Boehringer Ingelheim proprietary software MegaLab (curve fitting based on the program PRISM, GraphPad Inc.).

CYP3A4 = CYP3A4 (Homo sapiens (Human), UniProt P08684); assay: Mechanism based inhibition of CYP3A4 assay (MBI 3A4); assay type: in vitro ADME; conditions: hydroxy-midazolam formation after 30 min vs 0 min preincubation, 25 uM, human liver microsomes
Chain of CYP3A4 (P08684 whole entry): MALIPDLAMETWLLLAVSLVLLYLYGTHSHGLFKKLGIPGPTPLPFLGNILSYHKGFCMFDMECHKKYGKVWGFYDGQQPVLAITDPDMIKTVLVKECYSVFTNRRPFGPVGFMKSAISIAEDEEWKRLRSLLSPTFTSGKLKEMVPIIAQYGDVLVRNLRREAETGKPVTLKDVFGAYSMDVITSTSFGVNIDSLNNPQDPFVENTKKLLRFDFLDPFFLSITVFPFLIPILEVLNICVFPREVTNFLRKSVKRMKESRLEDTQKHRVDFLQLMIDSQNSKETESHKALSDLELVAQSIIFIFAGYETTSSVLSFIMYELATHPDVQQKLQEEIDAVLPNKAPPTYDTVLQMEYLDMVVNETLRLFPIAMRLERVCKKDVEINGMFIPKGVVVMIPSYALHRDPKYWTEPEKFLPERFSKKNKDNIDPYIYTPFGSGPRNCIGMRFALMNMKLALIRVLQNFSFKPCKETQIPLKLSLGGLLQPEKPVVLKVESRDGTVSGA
Method: After preincubation, the incubate is diluted 1:10 and the substrate midazolam is added for the main incubation (15 min). The main incubation is quenched with acetonitrile and the formation of hydroxy-midazolam is quantified via LC/MS-MS. The formation of hydroxy-midazolam from the 30 min preincubation relative to the formation from the 0 min preincubation is used as a readout. Values of less than 100% mean that the substrate midazolam is metabolized to a lower extent upon 30 min preincubation compared to 0 min preincubation. In general low effects upon 30 min preincubation are desired (corresponding to values close to 100%/not different to the values determined with water control).

Chain of KRAS (G12C)::SOS1 (P01116 other isoform, or with tags, fused parts or gaps G12C/C51S/C80L/C118S): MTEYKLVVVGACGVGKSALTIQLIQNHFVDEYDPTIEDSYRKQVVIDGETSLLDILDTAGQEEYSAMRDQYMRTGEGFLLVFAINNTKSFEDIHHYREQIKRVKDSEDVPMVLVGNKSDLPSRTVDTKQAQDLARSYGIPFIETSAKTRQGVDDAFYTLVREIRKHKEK

SMILES | IC50 (KRAS (G12C)::SOS1) | IC50 [1] | MBI 3A4 (CYP3A4)
C[C@H](Oc1cc(N2CCNCC23CCOC3)nc(-c2onc3c2CCC[C@@]32CCCc3sc(N)c(C#N)c32)n1)[C@@H]1CCCN1C (stereo partly drawn) [I-10] | 3 nM | 9 nM | 72%
C[C@H](Oc1cc(N2CC[C@H](N(C)C)C2)nc(-c2onc3c2CCC[C@@]32CCCc3sc(N)c(C#N)c32)n1)[C@@H]1CCCN1C [I-11] | 7 nM | 24 nM | 78%
C[C@H](Oc1cc(N2CC[C@H](N(C)C)C2)nc(-c2noc3c2CCC[C@@]32CCCc3sc(N)c(C#N)c32)n1)[C@@H]1CCCN1C [II-49] | 9 nM | 16 nM | 75%
C[C@H](Oc1cc(N2CCNC[C@]23CCOC3)nc(-c2noc3c2CCC[C@@]32CCCc3sc(N)c(C#N)c32)n1)[C@@H]1CCCN1C [II-50] | 2 nM | 7 nM | 54%
C[C@H](Oc1cc(N2CCNC3(CC3)C2)nc(-c2noc3c2CCC[C@@]32CCCc3sc(N)c(C#N)c32)n1)[C@@H]1CCCN1C [II-54] | 2 nM | 1 nM | 31%
C[C@H](Oc1cc(N2CCN(C)CC2)nc(-c2noc3c2CCC[C@@]32CCCc3sc(N)c(C#N)c32)n1)[C@@H]1CCCN1C [II-55] | 4 nM | 63 nM | 88%
C[C@H](Oc1cc(N2C[C@H](C)N[C@@H](C)C2)nc(-c2noc3c2CCC[C@@]32CCCc3sc(N)c(C#N)c32)n1)[C@@H]1CCCN1C [II-56] | 2 nM | 20 nM | 73%
C[C@H](Oc1cc(N2CCC[C@H](O)C2)nc(-c2noc3c2CCC[C@@]32CCCc3sc(N)c(C#N)c32)n1)[C@@H]1CCCN1C [II-57] | 2 nM | 40 nM | 61%
CO[C@@H]1C[C@@H]([C@H](C)Oc2cc(-n3ccnc3)nc(-c3noc4c3CCC[C@@]43CCCc4sc(N)c(C#N)c43)n2)N(C)C1 [II-58] | 2 nM | 45 nM | 68%
C[C@H](Oc1cc(N2CCC[C@@H](O)C2)nc(-c2noc3c2CCC[C@@]32CCCc3sc(N)c(C#N)c32)n1)[C@@H]1CCCN1C [II-59] | 2 nM | 35 nM | 80%
CO[C@@H]1C[C@@H]([C@H](C)Oc2cc(-c3cnn(C)n3)nc(-c3noc4c3CCC[C@@]43CCCc4sc(N)c(C#N)c43)n2)N(C)C1 [II-62] | 3 nM | 39 nM | 53%
C[C@H](Oc1cc(N2Cc3cnn(C)c3C2)nc(-c2noc3c2CCC[C@@]32CCCc3sc(N)c(C#N)c32)n1)[C@@H]1CCCN1C [II-63] | 3 nM | 266 nM | 74%
C[C@H](Oc1cc(N2CC[C@@H](O)C2)nc(-c2noc3c2CCC[C@@]32CCCc3sc(N)c(C#N)c32)n1)[C@@H]1CCCN1C [II-66] | 2 nM | 71 nM | 71%
C[C@H](Oc1cc(C2=CCOCC2)nc(-c2noc3c2CCC[C@@]32CCCc3sc(N)c(C#N)c32)n1)[C@@H]1CCCN1C [II-67] | 2 nM | 38 nM | 72%
Cc1cn(C)nc1-c1cc(O[C@@H](C)[C@@H]2CCCN2C)nc(-c2noc3c2CCC[C@@]32CCCc3sc(N)c(C#N)c32)n1 [II-68] | 2 nM | 77 nM | 74%
C[C@H](Oc1cc(-n2ccnc2)nc(-c2noc3c2CCC[C@@]32CCCc3sc(N)c(C#N)c32)n1)[C@@H]1CCCN1C [II-69] | 2 nM | 26 nM | 94%
C[C@H](Oc1cc(-n2cncn2)nc(-c2noc3c2CCC[C@@]32CCCc3sc(N)c(C#N)c32)n1)[C@@H]1CCCN1C [II-70] | 2 nM | 47 nM | 64%
C[C@H](Oc1cc(-c2cc[nH]n2)nc(-c2noc3c2CCC[C@@]32CCCc3sc(N)c(C#N)c32)n1)[C@@H]1CCCN1C [II-71] | 2 nM | 41 nM | 79%
C[C@H](Oc1cc(N2CCCC2=O)nc(-c2noc3c2CCC[C@@]32CCCc3sc(N)c(C#N)c32)n1)[C@@H]1CCCN1C [II-73] | 3 nM | 16 nM | 52%
C[C@H](Oc1cc(-c2cnn(C)c2)nc(-c2noc3c2CCC[C@@]32CCCc3sc(N)c(C#N)c32)n1)[C@@H]1CCCN1C [II-74] | 3 nM | 81 nM | 81%
C[C@H](Oc1cc(N2CCN(C)C2=O)nc(-c2noc3c2CCC[C@@]32CCCc3sc(N)c(C#N)c32)n1)[C@@H]1CCCN1C [II-75] | 2 nM | 83 nM | 57%
C[C@H](Oc1cc(C2CCOCC2)nc(-c2noc3c2CCC[C@@]32CCCc3sc(N)c(C#N)c32)n1)[C@@H]1CCCN1C [II-76] | 2 nM | 30 nM | 73%
